Test results from patent publication US10669270B2, “Amide-sulfamide derivatives, compositions, and uses related to CXCR4 inhibition” (Emory University, priority 2016, dated 2020).
Entries after “also recorded” stand apart in the source; their conditions may differ.

Columns and labels:
xylene-induced ear edema = assay: Xylene-induced ear inflammation suppression test; type: in vivo, mice; conditions: for inflammation suppression (mouse ear edema): 10 mg/kg i.p., 30 minutes after xylene, sacrificed 2 hours later; for histological analysis of ear: ear damage, edema, inflammatory cells
Description: Five mice per group were used to determine the effect of the CXCR4 modulators. The inner and outer surfaces of the right ear of each mouse were treated with a total 30 μL of xylene for the induction of ear edema, whereas the left ear was treated with 30 μL of saline, which was used as a non-inflammation control. The selected compounds were dissolved in 10% DMSO and 90% of 45% (2-hydroxypropyl)-β-cyclodextrin (CD) in PBS. Thirty minutes after the application of xylene, 14 selected compounds were administered intraperitoneally (i.p.) at 10 mg/kg. Control animals received corresponding i.p. injections of the vehicle. The animals were sacrificed 2 hours later, and two ear plugs (7 mm in diameter) were removed from both the treated ear and the untreated ear. Weights of treated and untreated ear plugs were measured. The difference in weight of the two ear plugs was taken as a measure of edematous response. The inflammation-suppression percentage was calculated by comparing the drug-treated group to the control group.

[1] = test system: CXCR4/CXCL12-mediated Akt phosphorylation; assay: Western blot analysis of Akt phosphorylation; type: cell-based
Description: Forty micrograms of protein were separated by SDS-PAGE and transferred to a PVDF membrane (Bio-Rad, Hercules, Calif., USA). The membrane was blocked for 30 min in a blocking solution (5% milk in Trisbuffered saline containing 0.1% Tween-20) and incubated overnight at 4° C. using monoclonal rabbit anti-phospho-Akt (Ser473) antibody (Cat No., 9271) and monoclonal rabbit anti-Akt (pan) antibody (cat No., 4691) at 1:500 in blocking solution. All antibodies were purchased from Cell Signaling Technology (Danvers, USA). The membrane was incubated for 1 hour with goat anti-rabbit IgG (H+L)-HRP conjugated secondary antibody at 1:10000 (Cat No. 1706515; Bio-rad, Hercules, USA) after washing. Enzyme-linked chemiluminescence was performed to detect hybridized protein bands.

[2] = test system: bacterial-infected J774A.1 macrophages; assay: TNF-α secretion by bacterial-infected macrophages; type: cell-based
[3] = Preliminary pharmacokinetic study (plasma stability); type: in vitro ADME
MDA-MB-231 cells [4] = assay: Cytotoxicity screening, MDA-MB-231; type: cell-based; conditions: at 10 μM
MCF-10A cells = assay: Cytotoxicity screening, MCF-10A; type: cell-based; conditions: at 10 μM
MDA-MB-231 cells [5] = assay: Matrigel invasion assay; type: cell-based; conditions: compounds 100 nM; CXCL12α 200 ng/mL; 22 hours
Description: Matrigel invasion assay was performed by using a Matrigel invasion chamber from Corning Biocoat (Bedford, Mass.). CXCL12α(200 ng/mL; R & D Systems, Minneapolis, Minn.) was added to the bottom chamber to induce the invasion of MDA-MB-231 cells through the Matrigel. The selected compounds (100 nM) or AMD3100 were added to the cells before the cells were seeded in the top chamber. The Matrigel invasion chamber was incubated for 22 hours in a humidified cell culture incubator. First, non-invading cells were removed from the top of the Matrigel with a cotton-tipped swab. Invading cells on the filter at the bottom of the Matrigel were fixed in methanol and stained with hematoxylin and eosin (H & E). The percent of invasion was determined by counting the H&E stained cellc.

CXCR4 = biological target: T1, CXCR4 (Homo sapiens, UniProt P61073); assay: Primary binding affinity screening (competition with biotinylated TN14003 on MDA-MB-231 cells)
T1 construct: endogenous in cells; host or cells: MDA-MB-231
T1 sequence (P61073 whole entry): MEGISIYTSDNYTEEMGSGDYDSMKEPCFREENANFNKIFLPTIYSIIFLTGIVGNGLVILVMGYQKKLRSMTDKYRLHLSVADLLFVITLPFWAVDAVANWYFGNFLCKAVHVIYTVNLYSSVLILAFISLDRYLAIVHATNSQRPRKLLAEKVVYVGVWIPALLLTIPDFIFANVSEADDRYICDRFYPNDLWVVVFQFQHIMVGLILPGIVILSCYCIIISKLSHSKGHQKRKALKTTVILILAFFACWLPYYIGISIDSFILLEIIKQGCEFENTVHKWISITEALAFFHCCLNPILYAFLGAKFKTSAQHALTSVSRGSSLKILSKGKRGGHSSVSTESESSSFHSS
Description: For binding affinity assay, 2×10^4 MDA-MB-231 cells in 300 μL of cell culture medium were seeded in an 8-well slide chamber 2 days before the experiments were conducted. Various concentrations of different compounds (1, 10, 100, or 1000 nM) were added to the separate wells and incubated for 10 minutes at room temperature, and then the cells were fixed in 4% ice-cold paraformaldehyde. The cells were rehydrated in phosphate-buffered saline (PBS). The slides were subsequently incubated for 30 minutes at room temperature with 0.05 μg/mL biotinylated TN14003, washed three times with PBS, and incubated in streptavidin-rhodamine (1:150 dilution; Jackson ImmunoResearch Laboratories, West Grove, Pa.) for 30 minutes at room temperature. Finally, the slides were washed with PBS and mounted in an anti-fade mounting solution (Molecular Probes, Eugene, Oreg.), and the samples were analyzed on a Nikon Eclipse E800 microscope.

| melting point | Structure (SMILES) | inflammation suppression (mouse ear edema) (xylene-induced ear edema) | histological analysis of ear (xylene-induced ear edema) | Matrigel invasion inhibition compared with AMD3100 (MDA-MB-231 cells [5]) | also measured |
| --- | --- | --- | --- | --- | --- |
| – | O=C(NCc1ccc(CNS(=O)(=O)c2ccc3c(c2)CCO3)cc1)c1scc2c1OCCO2 [Ik] | – | – | better activity than AMD3100 | – |
| – | O=C(NCc1ccc(CNS(=O)(=O)c2ccc(F)cc2F)cc1)c1cncnc1 [Ig, N-(4-((2,4-difluorophenylsulfonamido)methyl)benzyl)pyrimidine-5-carboxamide] | 56% | significantly attenuated the ear damage and decreased the number of inflammatory cells | better activity than AMD3100 | CXCR4/CXCL12-mediated phosphorylation of Akt [1]: blocked the phosphorylation of Akt; also recorded: blocked the CXCR4/CXCL12-mediated Akt phosphorylation in a dose-dependent manner; TNF-α secretion ([2]; result in words): significantly suppressed |
| 176 to 178 °C | Cc1cc(C(=O)NCc2ccc(CNS(=O)(=O)c3ccc4c(c3)CCO4)cc2)n(C)n1 [If, N-(4-((2,3-dihydrobenzofuran-5-sulfonamido)methyl)benzyl)-1,3-dimethyl-1H-pyrazole-5-carboxamide] | – | – | comparable inhibition to the reference drug AMD3100 | – |
| 137 to 139 °C | O=C(NCc1ccc(CNS(=O)(=O)c2ccc3c(c2)CCO3)cc1)c1cccnc1 [Ia, N-(4-((2,3-dihydrobenzofuran-5-sulfonamido)methyl)benzyl)nicotinamide] | – | – | better activity than AMD3100 | – |
| 139 to 141 °C | O=C(NCc1ccc(CNS(=O)(=O)c2ccccc2)cc1)c1ccccc1 [IIIa, N-(4-(phenylsulfonamidomethyl)benzyl)benzamide] | 62% | – | – | potency compared with AMD3100 (CXCR4; EC relative to AMD3100): 1000 fold; EC (CXCR4; MDA-MB-231 cells, compounds at 1, 10, 100, or 1000 nM, biotinylated TN14003): 1 nM |
| – | Cc1nnsc1C(=O)NCc1ccc(CNS(=O)(=O)c2ccc(F)c(F)c2)cc1 [Im, N-(4-((3,4-difluorophenylsulfonamido)methyl)benzyl)-4-methyl-1,2,3-thiadiazole-5-carboxamide] | 54% | significantly attenuated the ear damage and decreased the number of inflammatory cells | comparable inhibition to the reference drug AMD3100 | – |

| Structure (SMILES) | melting point | inflammation suppression (mouse ear edema) (xylene-induced ear edema) | histological analysis of ear (xylene-induced ear edema) | Matrigel invasion inhibition compared with AMD3100 (MDA-MB-231 cells [5]) | also measured |
| --- | --- | --- | --- | --- | --- |
| Cc1ccc(S(=O)(=O)NCc2ccc(CNC(=O)c3ccc(F)cc3)cc2)cc1 [IIj, 4-Fluoro-N-(4-((4-methylphenylsulfonamido)methyl)benzyl)benzamide] | 187 to 189 °C | 75% | attenuated ear edema and damage substantially | – | CXCR4/CXCL12-mediated phosphorylation of Akt [1]: blocked the CXCR4/CXCL12-mediated phosphorylation of Akt in a dose-dependent manner; attenuation of the amount of TNF-α [2]: 59%; plasma stability [3]: favourable plasma stability; inhibition of proliferation (cytotoxicity) (MDA-MB-231 cells [4]): did not inhibit the proliferation; inhibition of proliferation (cytotoxicity) (MCF-10A cells): did not inhibit the proliferation |
